Measurements taken from the NIST ThermoML archive (doi:10.1021/je900437b).

Experiment: xn = mol fraction of the nth substance listed
Conditions: 101 kPa, Liquid; for speed of sound: Sing-around technique in a fixed-path interferometer; for mass density: Vibrating tube method

CC(C)(N)CO [2-amino-2-methylpropan-1-ol] + NCCO
Conditions | mass density, 293.15 K [kg/m3] | mass density, 298.15 K [kg/m3] | mass density, 303.15 K [kg/m3] | speed of sound, 293.15 K [m/s] | speed of sound, 298.15 K [m/s] | speed of sound, 303.15 K [m/s] | speed of sound, 308.15 K [m/s]
x2 = 0 | 936.751 | 932.596 | 928.395 | 1501.4 | 1483.4 | 1461.2 | 1442.4
x2 = 0.141 | 944.932 | 940.731 | 936.493 | 1525.9 | 1508.3 | 1486.9 | 1468.5
x2 = 0.2691 | 953.001 | 948.799 | 944.603 | 1550.2 | 1533 | 1512.3 | 1494.4
x2 = 0.3862 | 961.121 | 956.918 | 952.718 | 1574 | 1557.1 | 1537.1 | 1519.5
x2 = 0.4939 | 969.165 | 964.959 | 960.768 | 1597.6 | 1580.9 | 1561.6 | 1544.3
x2 = 0.5933 | 977.051 | 972.875 | 968.682 | 1621.2 | 1604.7 | 1585.9 | 1569
x2 = 0.6869 | 984.969 | 980.811 | 976.624 | 1645.1 | 1628.8 | 1610.5 | 1593.8
x2 = 0.7724 | 992.742 | 988.58 | 984.413 | 1668.2 | 1652 | 1634.3 | 1617.7
x2 = 0.8532 | 1000.62 | 996.465 | 992.305 | 1691 | 1674.8 | 1657.7 | 1641.2
x2 = 0.9268 | 1008.22 | 1004.08 | 999.98 | 1712.6 | 1696.5 | 1679.9 | 1663.6
